“Also recorded” adds a separate entry of the source. Ends that are not written are not given here.
Columns and labels:
[1] = test system: endogenous transfer of Otx2 to cells of the visual cortex; test: Infusion of peptides into the right visual cortex of adult mice, count of cells expressing Otx2; assay type: in vivo; conditions: for number of cells expressing Otx2: adult mice, 0.25 mg/ml, 1 μl/h for 7 days into right visual cortex, infused vs control hemisphere
Protocol: For this purpose, the RK-Otx2 peptide (0.25 mg/ml), the AA-Otx2 peptide (0.25 mg/ml), or PBS buffer, combined with polysialic acid (0.25 mg/ml, in order to enable diffusion of the peptides and to avoid nonspecific binding thereof to neurons expressing polysialic acid at their surface), were slowly infused (1 μl/h) for 7 days into the right visual cortex of adult mice, using osmotic minipumps (Alzet 1003D, Alza) connected to stereotaxically implanted cannulas (Hensch et al., Science, 282, 1504-8, 1998; Fagiolini & Hensch, Nature, 404, 183-6, 2000). At the end of the infusion, the mice are perfused with 4% PFA, and brain sections (25 μm) are cut in order to study the localization of Otx2 and that of the RK-Otx2 peptide. Otx2 is visualized using a rat anti-Otx2 monoclonal antibody diluted to 1/200 (Sugiyama et al., Cell, 134, 508-20, 2008), followed by a donkey anti-rat antibody labeled with Alexa 488 (Molecular Probes), diluted to 1/2000. The RK-Otx2 peptide is visualized using streptavidin labeled with Cy5.
The cells expressing Otx2 were counted over a surface area of 700×350 μm encompassing layers I/II and IV of the binocular zone of the visual cortex.
It was verified, by Sytox green labeling, that the infusion had no effect in itself on the number of cells. In order to be sure that the decrease in the number of cells expressing Otx2 was not due to cell death, an infusion of this peptide was carried out according to the protocol described above, and the number of cells expressing Otx2 was measured 8 days after the end of the infusion.

[2] = test system: binding of AP-Nt-Otx2 to bipolar cells and ganglion cells; test: Antagonism of AP-Nt-Otx2 binding to sections of retinas by peptides; conditions: 2 μg/ml of peptide
Protocol: In order to verify that the RK-Otx2 peptide indeed had the same binding specificity as AP-Nt-Otx2, the ability of the RK-Otx2 and AA-Otx2 polypeptides to antagonize the binding of AP-Nt-Otx2 was tested. The test for binding of AP-Nt-Otx2 to sections of retinas was carried out as described above, with the exception that the incubation of the supernatant containing AP-Nt-Otx2 was carried out in the presence of 2 μg/ml of the RK-Otx2 peptide or of the AA-Otx2 peptide.

[3] = test system: plasticity of the visual cortex; test: Ocular dominance plasticity after 4 days monocular deprivation, single-unit extracellular electrophysiology; assay type: in vivo; conditions: adult mice; for ocular dominance induced by monocular deprivation: 4 days monocular deprivation after treatment
Protocol: The RK-Otx2 peptide or the AA-Otx2 peptide was infused in adult mice (therefore after closing of the critical period of plasticity), as described in example 4 above. Chondroitinase-ABC, or the injection buffer (deionized water+0.1% BSA), were injected (0.4 μl for each injection) at 3 sites surrounding the visual cortex (AP lambda, LM 1.5 mm; AP lambda, 4.0 mm; AP+1.5 mm; LM 2.5 mm) at two different depths (300 and 500 μm).
After infusion of the peptides or injection of chondroitinase ABC, the mice are subjected to monocular deprivation for 4 days, and the responses to visual stimuli are then measured by single-unit extracellular electrophysiology. The electrophysiology recordings are carried out under nembutal/chlorprothixene anesthesia using standard techniques (Gordon & Stryker, J Neurosci, 16, 3274-86, 1996; Mataga et al., Neuron, 44, 1031-41, 2004). 5 to 7 single-unit recordings were carried out for each mouse, on both sides of the medial-lateral axis of the primary visual cortex, in order to cover the monocular zone and the binocular zone, and to avoid sampling biases. Cell dominance scores were assigned to the cell responses, using a 7-point classification system (Wiesel & Hubel, J Neurophysiol, 26, 978-93, 1963) (Gordon & Stryker, J Neurosci, 16, 3274-86, 1996). The ocular dominance in the binocular zone was calculated for each mouse according to a contralateral bias index (CBI), determined as follows:
(CBI): [(n1−n7)+⅔(n2−n6)+⅓(n3−n5)+N]/2N, where N=total number of cells and nx=number of cells corresponding to an ocular dominance score of x.
This weighted mean of the bias in favor of one or other eye can range from 0, for complete ipsilateral dominance, to 1, for complete contralateral dominance.

[4] = test system: retinal ganglion neurons (RGCs) and bipolar cells on sections of retina; test: Binding test of AP fusion proteins and biotinylated peptides on sections of retina; conditions: supernatants diluted to 1/20, 2 hours at room temperature, alkaline phosphatase detection
Protocol: The sequences encoding the human Otx2 protein or encoding the fragments tested were cloned into the vector pAPtag-5 (GenHunter), in frame with the sequence encoding alkaline phosphatase. The various constructions carried out are represented diagrammatically in FIG. 1. HEK 293 cells cultured in culture dishes 10 cm in diameter were transfected with 10 μg of each of the vectors constructed, purified beforehand, using Lipofectamine 2000 (Invitrogen) according to the manufacturer's instructions. The transfected cells were incubated for 48 hours in DMEM/F12, supplemented with 10% of fetal bovine serum (FCS). The supernatant was collected, centrifuged at 100×g for 5 minutes and stored at −80° C. This supernatant is used, without purification, for testing the binding of the chimeric proteins on sections of retina. […]
Biotinylated peptides corresponding to various fragments of the N-terminal domain+homeodomain portion of Otx2 were synthesized and the binding thereof to sections of retina, prepared as described above, was tested. The incubation of the peptides with the sections of retina was carried out under the same conditions as those described above, and then the sections bearing the bound peptides were incubated with alkaline phosphatase-labeled streptavidin, and the alkaline phosphatase activity was detected as described above.

[5] = test system: binding of AP-Nt-Otx2 to its target cells of the cerebral cortex; test: Blocking of AP-Nt-Otx2 binding to cortical target cells on adult mouse brain sections; conditions: whole Otx2 1 μg/ml, peptides 2 μg/ml
Protocol: The interaction, with the cells of the cerebral cortex, of the AP-Otx2, AP-Nt-Otx2, AP-Hd-Otx2 and AP-HdAA-Otx2 fusion proteins ([…] a variant of AP-Nt-Otx2 in which the RK amino acid doublet has been replaced with the AA doublet), alone (culture supernatant diluted to 1/20th) or in the presence of a whole Otx2 (1 μg/ml) or of the RK-Otx2 or AA-Otx2 peptides (2 μg/ml), was tested on cryostat sections of adult mouse brains, using the protocol described in example 1 above.

[6] = test system: parvalbumin neurons of the visual cortex; test: WFA labeling and parvalbumin expression in visual cortex after peptide infusion; assay type: in vivo; conditions: adult mice
Protocol: In addition, treated mouse brain frontal sections were prepared, as described in example 4 above, in order to determine the influence of the RK-Otx2 peptide on parvalbumin neurons. The sections were labeled either with WFA, as described in example 3, or using a mouse anti-parvalbumin monoclonal antibody ( 1/500, Sigma-Aldrich), which was visualized using a donkey anti-mouse antibody labeled with Cy3. The labeled cells were quantified as described in example 4.

retinal ganglion neurons [7] = conditions: previously shown, application PCT/FR 2009/000031; cited from earlier work
retinal ganglion neurons [8] = test: Survival of retinal ganglion neurons after NMDA injection into the eye (Brn3A mRNA, quantitative RT-PCR); assay type: in vivo, C57 B16 mice; conditions: mice, after 4 days
Protocol: C57 B16 mice received, in the right eye, 1 μl of injection buffer (PBS or 9‰ NaCl) containing either 1 mM of NMDA, or 1 mM of NMDA supplemented with 30 ng of the chimeric polypeptide, and in the left eye, the same volume of injection buffer, without additive.
The survival of the ganglion neurons was determined by measuring the level of expression of Brain 3A (Brn3A), a transcription factor which, in the retina, is specifically expressed in the ganglion neurons (Xiang et al., J. Neurosci., 15, 4762-4785, 1995).
After 4 days, the animals are sacrificed, the retinas are removed, and the mRNA is extracted therefrom.
The level of expression of Bm3A mRNA was determined by quantitative RT-PCR using the hypoxanthine phosphoribosyltransferase (HPRT) gene as reference gene, and the ratio between the expression of the Bm3A mRNA in the right eye and in the left eye was calculated.
The results are illustrated by FIG. 5. The additives used are indicated along the x-axis; the ratio between the amounts of Brn3A mRNA (standardized relative to the HPRT mRNA) in the right eye and in the left eye is indicated along the y-axis.

[9] = test system: GAGs of the perineuronal net associated with parvalbumin neurons; test: Chondroitinase ABC treatment of adult mouse brain sections: WFA labeling and AP fusion protein binding; conditions: brain sections incubated 24 hours with chondroitinase ABC 2 U/ml
Protocol: In order to determine whether the perineuronal net associated with parvalbumin neurons was involved in the binding between AP-Nt-Otx2 and its target cells, the binding of AP-Otx2 was tested on cryostat sections of adult mouse brains fixed with methanol, and then incubated for 24 hours in the presence of chondroitinase ABC (2 U/ml) in a buffer containing 50 mM Tris [pH 8.0], 40 mM of sodium acetate, 0.1% BSA and protease inhibitors. In parallel, the sections, untreated or treated with chondroitinase ABC, were incubated with 0.01 mg/ml of Wisteria floribunda agglutinin lectin (WFA; Sigma-Aldrich), which binds to the GAGs of the perineuronal net, and which is labeled with FITC.

RKQRRERTTFTRAQL (also: biotin (position not given here)) [RK-Otx2]
amount of peptide detected in the visual cortex ([1]; 8 days after the end of infusion): only very small amounts | number of cells expressing Otx2 in the treated hemisphere ([1]; 8 days after the end of the infusion): restored to the level of that of the control hemisphere | number of cells expressing Otx2 [1]: significantly reduces the number of cells expressing Otx2 | blocking of the binding of AP-Nt-Otx2 to the bipolar cells and ganglion cells [2]: blocks the binding of AP-Nt-Otx2 to the bipolar cells and to the ganglion cells | ocular dominance induced by monocular deprivation [3]: induces an ocular dominance | contralateral bias index (CBI) ([3]; after peptide infusion and 4 days monocular deprivation, decrease from 0.7): 0.57 | binding to retinal cells [4]: has the same binding specificity as the AP-Otx2 and AP-Nt-Otx2 fusion proteins; also recorded: binds, like AP-Nt-Otx2, to the ganglion and bipolar cells | blocking of the binding of AP-Nt-Otx2 to its cortical target cells [5]: block the binding of AP-Nt-Otx2 to its target cells | expression of the sites for the binding of WFA and of parvalbumin ([6]; after peptide infusion): decreases the expression of the sites for the binding of WFA, and also that for parvalbumin | decrease in the number of cells surrounded by sites for the binding of WFA ([6]; infused vs control hemisphere): 51.3% | decrease in the number of parvalbumin-positive cells ([6]; infused vs control hemisphere): 56.2%

Otx2: Orthodenticle homolog 2, homeoprotein containing a bicoid-type homeodomain
blocking of the binding of AP-Nt-Otx2 to its cortical target cells [5]: block the binding of AP-Nt-Otx2 to its target cells | protection of retinal ganglion neurons against the toxic effects of NMDA (retinal ganglion neurons [7]): protects retinal ganglion neurons against the toxic effects of N-methyl-D-aspartate (NMDA)

CN[C@H](CC(=O)O)C(=O)O [NMDA, N-methyl-D-aspartate, reference compound]
decrease in the amount of ganglion neurons (retinal ganglion neurons [8]; 1 μl of 1 mM NMDA alone into right eye, Brn3A mRNA): approximately 60%

AAQRRERTTFTRAQL (Targeting peptide inactive mutant) [AA-Otx2]
number of cells expressing Otx2 [1]: only a small, insignificant reduction | blocking of the binding of AP-Nt-Otx2 to the bipolar cells and ganglion cells [2]: has no effect on this binding

chimeric polypeptide: amino acids 1-97 of Otx2 (N-terminal domain and homeodomain) fused with the VP16 trans-activator domain of the herpes virus (SEQ ID NO: 4) (MLGDGDSPGPGFTPHDSAPYGALDMADFEFEQMFTDALGIDEYGG; VP16 transactivator domain)
protection of ganglion neurons against the toxic effects of NMDA (Brn3A mRNA ratio right eye/left eye) (retinal ganglion neurons [8]; 1 μl into right eye, 1 mM NMDA plus 30 ng chimeric polypeptide): effectively protects the ganglion neurons against the toxic effects of the NMDA

chondroitinase ABC
ocular dominance induced by monocular deprivation [3]: as in those treated with the chondroitinase ABC | effect of chondroitinase ABC treatment on binding of the AP fusion protein [9]: abolishes the binding of AP-Nt-Otx2 | effect on GAGs of the perineuronal net (WFA labeling) [9]: destroys the GAGs of the perineuronal net

From US10842852B2, “Methods of delivering a polypeptide molecule to Otx2 target cells using an Otx2 targeting peptide” (Centre National de la Recherche Scientifique, priority 2009, dated 2020)
